# In publication PMC6848745 (Psychopharmacology, 2018):
# “And” between values parts separate entries of the source, which are not always exact repeats. Identical values can stand only once.
# Columns and labels:
# H3 = H3 (Cavia porcellus, UniProt Q9JI35); assay: NIMH PDSP competitive binding, H3; conditions: primary binding assay
# α1D = α1D (Homo sapiens, UniProt P25100); assay: NIMH PDSP competitive binding, α1D; conditions: [3H]prazosin; cloned receptor
# 5-HT7 = 5-HT7 (Homo sapiens, UniProt P34969); assay: NIMH PDSP competitive binding, 5-HT7; conditions: [3H]LSD; cloned receptor; mean ± SEM
# Sequence of 5-HT7 (P34969 whole entry): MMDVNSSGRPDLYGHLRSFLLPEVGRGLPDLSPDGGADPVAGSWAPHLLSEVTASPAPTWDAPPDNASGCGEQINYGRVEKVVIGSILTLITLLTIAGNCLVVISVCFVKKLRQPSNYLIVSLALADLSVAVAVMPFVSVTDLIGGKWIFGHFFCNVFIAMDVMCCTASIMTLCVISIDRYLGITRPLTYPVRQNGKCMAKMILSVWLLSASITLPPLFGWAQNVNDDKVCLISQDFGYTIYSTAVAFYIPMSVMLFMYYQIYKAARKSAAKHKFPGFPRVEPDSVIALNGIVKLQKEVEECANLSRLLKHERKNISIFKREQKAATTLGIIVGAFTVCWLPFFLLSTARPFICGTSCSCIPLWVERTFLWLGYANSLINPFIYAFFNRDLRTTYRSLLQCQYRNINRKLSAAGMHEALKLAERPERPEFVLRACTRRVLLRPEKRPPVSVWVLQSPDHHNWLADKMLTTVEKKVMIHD
# α2C = α2C (Homo sapiens, UniProt P18825); assay: NIMH PDSP competitive binding, α2C; conditions: [3H]rauwolscine; cloned receptor; mean ± SEM
# D3 = D3 (Homo sapiens, UniProt P35462); assay: NIMH PDSP competitive binding, D3; conditions: [3H]N-methylspiperone; cloned receptor; mean ± SEM
# β3 = β3 (Homo sapiens, UniProt P13945); assay: NIMH PDSP competitive binding, β3; conditions: [3H]CGP12177; cloned receptor; mean ± SEM
# α1A = α1A (Homo sapiens, UniProt P35348); assay: NIMH PDSP competitive binding, α1A; conditions: [3H]prazosin; cloned receptor
# 5-HT2A [1] = target: T1, 5-HT2A (Homo sapiens, UniProt P28223); assay: NIMH PDSP competitive binding, 5-HT2A; conditions: [3H]ketanserin; cloned receptor; mean ± SEM
# T1 sequence (P28223 whole entry): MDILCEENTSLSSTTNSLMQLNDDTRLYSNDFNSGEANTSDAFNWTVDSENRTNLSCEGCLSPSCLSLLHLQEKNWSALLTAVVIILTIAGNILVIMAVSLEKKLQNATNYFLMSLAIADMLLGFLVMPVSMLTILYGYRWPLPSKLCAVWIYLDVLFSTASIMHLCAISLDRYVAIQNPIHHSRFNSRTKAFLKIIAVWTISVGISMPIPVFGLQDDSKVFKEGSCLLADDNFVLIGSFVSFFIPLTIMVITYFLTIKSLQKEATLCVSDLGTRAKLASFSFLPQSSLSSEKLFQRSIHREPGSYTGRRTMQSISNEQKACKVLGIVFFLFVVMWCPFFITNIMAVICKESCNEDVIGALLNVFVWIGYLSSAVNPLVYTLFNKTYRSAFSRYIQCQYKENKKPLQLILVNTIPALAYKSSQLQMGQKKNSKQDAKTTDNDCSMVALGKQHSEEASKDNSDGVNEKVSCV
# D1 = D1 (Homo sapiens, UniProt P21728); assay: NIMH PDSP competitive binding, D1; conditions: [3H]SCH23390; cloned receptor; mean ± SEM
# D5 = D5 (Homo sapiens, UniProt P21918); assay: NIMH PDSP competitive binding, D5; conditions: [3H]SCH23390; cloned receptor; mean ± SEM
# Sequence of D5 (P21918 whole entry): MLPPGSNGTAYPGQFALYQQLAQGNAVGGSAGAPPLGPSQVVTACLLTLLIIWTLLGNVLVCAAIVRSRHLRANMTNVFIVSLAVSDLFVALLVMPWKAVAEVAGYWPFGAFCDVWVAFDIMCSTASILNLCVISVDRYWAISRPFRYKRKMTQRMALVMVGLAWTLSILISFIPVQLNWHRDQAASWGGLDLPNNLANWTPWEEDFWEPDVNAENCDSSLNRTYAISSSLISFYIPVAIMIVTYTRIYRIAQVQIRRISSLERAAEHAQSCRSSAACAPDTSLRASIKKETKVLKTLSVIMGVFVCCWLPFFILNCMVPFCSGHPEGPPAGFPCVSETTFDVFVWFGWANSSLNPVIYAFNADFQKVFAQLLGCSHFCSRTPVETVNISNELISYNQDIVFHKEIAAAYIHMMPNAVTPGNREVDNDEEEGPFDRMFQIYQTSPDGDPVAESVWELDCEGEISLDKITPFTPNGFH
# α2A = α2A (Homo sapiens, UniProt P08913); assay: NIMH PDSP competitive binding, α2A; conditions: [3H]rauwolscine; cloned receptor; mean ± SEM
# 5-HT1A = 5-HT1A (Homo sapiens, UniProt P08908); assay: NIMH PDSP competitive binding, 5-HT1A; conditions: [3H]8-OH-DPAT; cloned receptor; mean ± SEM
# C57BL/6J mice = assay: Head twitch response; assay type: in vivo, mouse; conditions: for HTR Counts (Mean ± SEM): 30 min
# human 5-HT2C INI = target: T2, human 5-HT2C INI (Homo sapiens, UniProt P28335); assay: Gq-mediated calcium flux in HEK293 cells, h5-HT2C; assay type: cell-based
# T2 sequence (P28335 33-458): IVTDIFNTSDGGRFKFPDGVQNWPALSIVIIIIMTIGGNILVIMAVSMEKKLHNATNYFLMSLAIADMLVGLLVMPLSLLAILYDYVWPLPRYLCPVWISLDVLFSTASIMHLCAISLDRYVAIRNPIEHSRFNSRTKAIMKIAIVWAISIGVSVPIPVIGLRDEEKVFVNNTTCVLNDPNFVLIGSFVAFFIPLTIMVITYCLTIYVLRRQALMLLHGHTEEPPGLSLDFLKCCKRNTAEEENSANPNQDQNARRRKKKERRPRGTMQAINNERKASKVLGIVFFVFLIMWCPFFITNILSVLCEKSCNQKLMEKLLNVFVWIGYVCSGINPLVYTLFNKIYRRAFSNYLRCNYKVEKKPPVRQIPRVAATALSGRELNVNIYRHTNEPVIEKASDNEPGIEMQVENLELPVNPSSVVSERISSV
# H4 = H4 (Homo sapiens, UniProt Q9H3N8); assay: NIMH PDSP competitive binding, H4
# Sequence of H4 (Q9H3N8 whole entry): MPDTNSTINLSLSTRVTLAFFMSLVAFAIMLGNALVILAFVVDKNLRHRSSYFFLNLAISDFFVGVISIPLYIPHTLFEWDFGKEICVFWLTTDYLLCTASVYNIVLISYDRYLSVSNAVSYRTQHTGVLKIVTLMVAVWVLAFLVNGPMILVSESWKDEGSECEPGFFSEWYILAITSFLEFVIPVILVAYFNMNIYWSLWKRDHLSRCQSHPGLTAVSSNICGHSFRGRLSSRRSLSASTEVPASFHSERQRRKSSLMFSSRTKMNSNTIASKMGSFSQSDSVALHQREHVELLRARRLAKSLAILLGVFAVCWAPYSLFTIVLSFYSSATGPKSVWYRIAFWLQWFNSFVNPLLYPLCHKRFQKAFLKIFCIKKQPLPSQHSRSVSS
# 5-HT2A [2] = target: T1, 5-HT2A; assay: Gq-mediated calcium flux in HEK293 cells, h5-HT2A; assay type: cell-based
# D4 = D4 (Homo sapiens, UniProt P21917); assay: NIMH PDSP competitive binding, D4; conditions: [3H]N-methylspiperone; cloned receptor; mean ± SEM
# Sequence of D4 (P21917 whole entry): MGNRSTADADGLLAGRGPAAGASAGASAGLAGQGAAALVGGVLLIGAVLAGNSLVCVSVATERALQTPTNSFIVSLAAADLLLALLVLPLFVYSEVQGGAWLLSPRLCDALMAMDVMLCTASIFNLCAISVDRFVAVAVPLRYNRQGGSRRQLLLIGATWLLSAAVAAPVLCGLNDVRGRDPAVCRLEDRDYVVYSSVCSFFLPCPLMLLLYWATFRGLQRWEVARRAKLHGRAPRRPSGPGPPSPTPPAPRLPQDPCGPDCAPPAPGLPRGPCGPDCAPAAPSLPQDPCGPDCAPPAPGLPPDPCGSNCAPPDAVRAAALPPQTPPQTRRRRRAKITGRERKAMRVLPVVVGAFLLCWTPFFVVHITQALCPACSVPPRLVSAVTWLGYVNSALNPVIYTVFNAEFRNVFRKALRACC
# 5-HT2C = 5-HT2C (Homo sapiens, UniProt P28335); assay: NIMH PDSP competitive binding, 5-HT2C
# β1 = β1 (Homo sapiens, UniProt P08588); assay: NIMH PDSP competitive binding, β1; conditions: primary binding assay
# Sequence of β1 (P08588 whole entry): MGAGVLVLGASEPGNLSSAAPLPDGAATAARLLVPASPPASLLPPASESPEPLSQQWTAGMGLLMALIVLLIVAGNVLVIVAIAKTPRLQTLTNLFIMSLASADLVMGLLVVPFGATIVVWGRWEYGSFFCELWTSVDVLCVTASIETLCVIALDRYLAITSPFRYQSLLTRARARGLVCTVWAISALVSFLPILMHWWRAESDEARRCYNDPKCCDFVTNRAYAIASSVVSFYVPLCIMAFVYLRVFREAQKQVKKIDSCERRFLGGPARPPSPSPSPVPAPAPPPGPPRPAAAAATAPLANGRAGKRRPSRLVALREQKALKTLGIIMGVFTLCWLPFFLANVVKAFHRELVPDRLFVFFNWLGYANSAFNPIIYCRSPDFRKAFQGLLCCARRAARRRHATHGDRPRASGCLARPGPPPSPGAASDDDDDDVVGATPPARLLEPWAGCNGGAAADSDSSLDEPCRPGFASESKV
# α2B = α2B (Homo sapiens, UniProt P18089); assay: NIMH PDSP competitive binding, α2B; conditions: [3H]rauwolscine; cloned receptor; mean ± SEM
# D2 = D2 (Homo sapiens, UniProt P14416); assay: NIMH PDSP competitive binding, D2; conditions: [3H]N-methylspiperone; cloned receptor; mean ± SEM
# 5-HT5A = 5-HT5A (Homo sapiens, UniProt P47898); assay: NIMH PDSP competitive binding, 5-HT5A; conditions: [3H]LSD; cloned receptor; mean ± SEM
# 5-HT6 = 5-HT6 (Homo sapiens, UniProt P50406); assay: NIMH PDSP competitive binding, 5-HT6; conditions: [3H]LSD; cloned receptor; mean ± SEM
# 5-HT1B = 5-HT1B (Homo sapiens, UniProt P28222); assay: NIMH PDSP competitive binding, 5-HT1B; conditions: [3H]GR125743; cloned receptor; mean ± SEM
# H2 = H2 (Homo sapiens, UniProt P25021); assay: NIMH PDSP competitive binding, H2; conditions: [3H]tiotidine; cloned receptor; mean ± SEM
# H1 = H1 (Homo sapiens, UniProt P35367); assay: NIMH PDSP competitive binding, H1
# Sequence of H1 (P35367 whole entry): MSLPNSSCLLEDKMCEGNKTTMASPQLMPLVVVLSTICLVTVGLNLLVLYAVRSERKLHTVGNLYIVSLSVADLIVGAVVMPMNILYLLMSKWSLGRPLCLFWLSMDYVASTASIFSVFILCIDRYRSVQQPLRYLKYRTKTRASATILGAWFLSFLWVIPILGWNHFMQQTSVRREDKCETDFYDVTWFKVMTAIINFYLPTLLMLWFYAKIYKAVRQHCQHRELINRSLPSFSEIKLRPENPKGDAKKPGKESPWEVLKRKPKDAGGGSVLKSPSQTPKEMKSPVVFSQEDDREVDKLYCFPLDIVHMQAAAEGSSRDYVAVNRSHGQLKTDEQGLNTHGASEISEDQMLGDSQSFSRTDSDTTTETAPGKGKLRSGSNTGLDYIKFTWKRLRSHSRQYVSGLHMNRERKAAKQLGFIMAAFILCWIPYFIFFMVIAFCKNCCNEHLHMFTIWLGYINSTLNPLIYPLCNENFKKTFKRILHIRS
# 5-HT2B [3] = target: T3, 5-HT2B (Homo sapiens, UniProt P41595); assay: Gq-mediated calcium flux in HEK293 cells, h5-HT2B; assay type: cell-based
# T3 sequence (P41595 whole entry): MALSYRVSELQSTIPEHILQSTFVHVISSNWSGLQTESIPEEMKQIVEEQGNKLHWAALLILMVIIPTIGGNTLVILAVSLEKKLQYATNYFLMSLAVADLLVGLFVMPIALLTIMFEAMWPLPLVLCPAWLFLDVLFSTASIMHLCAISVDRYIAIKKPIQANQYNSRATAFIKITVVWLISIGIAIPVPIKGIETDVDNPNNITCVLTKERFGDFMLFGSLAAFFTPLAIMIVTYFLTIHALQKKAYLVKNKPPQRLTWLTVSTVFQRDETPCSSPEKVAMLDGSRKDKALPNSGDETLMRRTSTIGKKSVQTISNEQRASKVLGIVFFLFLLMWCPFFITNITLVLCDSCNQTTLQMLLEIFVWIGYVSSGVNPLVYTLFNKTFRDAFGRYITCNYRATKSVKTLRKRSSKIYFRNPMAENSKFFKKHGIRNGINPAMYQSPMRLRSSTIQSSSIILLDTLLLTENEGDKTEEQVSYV
# β2 = β2 (Homo sapiens, UniProt P07550); assay: NIMH PDSP competitive binding, β2
# Sequence of β2 (P07550 whole entry): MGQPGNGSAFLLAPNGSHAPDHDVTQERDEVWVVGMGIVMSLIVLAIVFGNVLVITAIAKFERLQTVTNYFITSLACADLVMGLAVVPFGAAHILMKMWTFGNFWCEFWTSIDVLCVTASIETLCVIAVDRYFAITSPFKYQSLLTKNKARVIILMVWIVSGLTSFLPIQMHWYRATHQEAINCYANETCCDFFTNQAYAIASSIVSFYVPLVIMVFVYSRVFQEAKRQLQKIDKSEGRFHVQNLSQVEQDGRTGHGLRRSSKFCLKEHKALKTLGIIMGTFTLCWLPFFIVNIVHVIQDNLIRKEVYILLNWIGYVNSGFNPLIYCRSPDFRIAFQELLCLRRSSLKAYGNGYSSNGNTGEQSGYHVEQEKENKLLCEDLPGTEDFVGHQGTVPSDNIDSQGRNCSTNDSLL
# 5-HT2B [4] = target: T3, 5-HT2B; assay: NIMH PDSP competitive binding, 5-HT2B; conditions: [3H]LSD; cloned receptor; mean ± SEM
# α1B = α1B (Homo sapiens, UniProt P35368); assay: NIMH PDSP competitive binding, α1B; conditions: [3H]prazosin; cloned receptor; mean ± SEM
# 5-HT1D = 5-HT1D (Homo sapiens, UniProt P28221); assay: NIMH PDSP competitive binding, 5-HT1D; conditions: [3H]GR125743; cloned receptor; mean ± SEM
# [5] = Ca2+ mobilization, HEK293 cells
# [6] = percent 5-HT maximum response, mean ± SEM
# Sequence of α1D (P25100 whole entry): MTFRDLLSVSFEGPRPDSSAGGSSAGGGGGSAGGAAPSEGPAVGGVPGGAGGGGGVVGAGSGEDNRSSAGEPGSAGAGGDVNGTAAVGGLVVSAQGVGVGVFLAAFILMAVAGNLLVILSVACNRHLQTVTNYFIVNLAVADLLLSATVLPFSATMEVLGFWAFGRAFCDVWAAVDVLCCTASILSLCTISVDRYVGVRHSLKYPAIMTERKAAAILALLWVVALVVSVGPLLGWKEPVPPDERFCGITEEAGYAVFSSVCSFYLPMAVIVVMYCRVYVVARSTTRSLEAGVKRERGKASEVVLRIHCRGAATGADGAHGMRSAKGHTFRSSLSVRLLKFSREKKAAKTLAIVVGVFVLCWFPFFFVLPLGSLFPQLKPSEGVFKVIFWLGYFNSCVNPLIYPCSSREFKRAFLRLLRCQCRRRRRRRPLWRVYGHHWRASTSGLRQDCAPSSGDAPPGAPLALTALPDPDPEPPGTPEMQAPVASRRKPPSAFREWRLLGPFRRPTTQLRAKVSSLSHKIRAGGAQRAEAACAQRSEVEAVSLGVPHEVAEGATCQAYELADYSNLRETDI
smiles,measurement,setting,value
"CCN(C(=O)[C@@H]1C=C2c3cccc4[nH]cc(c34)C[C@H]2N(C)C1)C1CC1 [ECPLA, N-ethyl-N-cyclopropyl lysergamide]",displacement at 10 μM,H3,< 50%
same,Ki,α1D,> 10000 nM
same,Ki,5-HT7,27.3 ± 11.5 nM
same,Ki,α2C,438 ± 118 nM
same,Ki,D3,104 ± 29 nM
same,Ki,β3,2420 ± 639 nM
same,Ki,α1A,> 10000 nM
same,Ki,5-HT2A [1],16.5 ± 6 nM
same,Ki,D1,502 ± 122 nM
same,Ki,D5,1500 ± 386 nM
same,Ki,α2A,144 ± 64 nM
same,Ki,5-HT1A,3.2 ± 0.5 nM
same,HTR Counts (Mean ± SEM),C57BL/6J mice; 0.1 mg/kg IP,17.7 ± 2.6
same,HTR Counts (Mean ± SEM),C57BL/6J mice; 0.3 mg/kg IP,34.6 ± 5.1
same,HTR Counts (Mean ± SEM),C57BL/6J mice; 1 mg/kg IP,28.2 ± 2.6
same,"ED50, nmol/kg (95% CI)","C57BL/6J mice; IP, entire 30-min test session",317.2 (213.2–471.9) nmol/kg
same,"ED50, μg/kg (95% CI)","C57BL/6J mice; IP, entire 30-min test session",130.2 (87.5–193.7) μg/kg
same,dose of peak HTR response,"C57BL/6J mice; biphasic inverted-U-shaped dose-response, IP",0.3 mg/kg
same,EC50,human 5-HT2C INI; [5],183 nM
same,pEC50 ± SEM,human 5-HT2C INI; [5],6.74 ± 0.09
same,Emax % 5-HT,human 5-HT2C INI; [6],73 % 5-HT and 73 ± 3 % 5-HT
same,Ki,"H4; [3H]histamine, cloned receptor, IC50 > 10 μM in the primary binding assay",> 10000 nM
same,displacement at 10 μM,"H4; primary binding assay, 10 μM",< 50%
same,EC50,5-HT2A [2]; [5],14.6 nM
same,pEC50 ± SEM,5-HT2A [2]; [5],7.84 ± 0.04
same,Emax % 5-HT,5-HT2A [2]; [6],91 % 5-HT and 91 ± 1 % 5-HT
same,Ki,D4,92.3 ± 11.9 nM
same,fold lower affinity than LSD for the 5-HT2C receptor,5-HT2C; ECPLA Ki 85.7 nM vs LSD Ki 30 nM,~3 fold
same,Ki,"5-HT2C; [3H]mesulergine, cloned receptor, mean ± SEM",85.7 ± 31.2 nM
same,displacement at 10 μM,β1,< 50%
same,Ki,α2B,62.3 ± 15.1 nM
same,Ki,D2,150 ± 32 nM
same,Ki,5-HT5A,8.6 ± 4.2 nM
same,Ki,5-HT6,21.7 ± 4.4 nM
same,Ki,5-HT1B,42.3 ± 8.7 nM
same,Ki,H2,890 ± 137 nM
same,Ki,"H1; [3H]pyrilamine, cloned receptor, IC50 > 10 μM in the primary binding assay",> 10000 nM
same,displacement at 10 μM,"H1; primary binding assay, 10 μM",< 50%
same,EC50,5-HT2B [3]; [5],36.7 nM
same,pEC50 ± SEM,5-HT2B [3]; [5],7.44 ± 0.06
same,Emax % 5-HT,5-HT2B [3]; [6],73 % 5-HT and 73 ± 2 % 5-HT
same,Ki,"β2; [3H]CGP12177, cloned receptor, IC50 > 10 μM in the primary binding assay",> 10000 nM
same,displacement at 10 μM,"β2; primary binding assay, 10 μM",< 50%
same,Ki,5-HT2B [4],5.3 ± 1.3 nM
same,Ki,α1B,1950 ± 152 nM
same,Ki,5-HT1D,12.6 ± 1.9 nM
